These results are taken from patent publication US20260034123A1 (Cedilla Therapeutics, Inc., priority 2022, published 2026).

One assay deals with CDK2/Cyclin E1 (Homo sapiens, UniProt P24941). Put plainly: Caliper LabChip EZ Reader mobility shift assay. Format: biochemical. To be noted: 2.5 nM CDK2/Cyclin E1(14-475), 100 μM ATP, 30 min preincubation; read-out: Caliper Assay (CDK2/CCNE1): IC50. The procedure:
Inhibition of CDK2/Cyclin E1 activity in the presence of compounds of the present disclosure was evaluated using a Caliper LabChip® EZ Reader mobility shift assay. In the assay, activated CDK2/Cyclin E1 catalyzes the phosphorylation of a fluorescently tagged peptide 5-FAM-QSPKKG-CONH2 (PerkinElmer, FL Peptide 18) which induces a difference in capillary electrophoresis mobility. The peptide substrate and product were measured, and the conversion ratio was used to determine the inhibition (as % activity and IC50 values) of CDK2/Cyclin E1. Reactions contained 50 mM HEPES pH 7.5, 10 mM MgCl2, 1 mM EDTA, 2 mM DTT, 0.01% Brij35, 0.5 mg/mL BSA, 0.1% DMSO, 2.5 nM CDK2/Cyclin E1(14-475), 100 μM ATP, and 1.5 μM fluorescent peptide substrate.
Dose titrations of inhibitors in 100% DMSO were combined with 3.25 nM CDK2/Cyclin E1(14-475) and 130 μM of ATP in reaction buffer. The mixtures were incubated for 30 minutes before the addition of fluorescent peptide substrate to initiate the kinase reaction. The final conditions were 2.5 nM CDK2/Cyclin E1(14-475), 100 μM ATP, and 1.5 μM fluorescent peptide. The reactions were stopped after 100 minutes with the addition of EDTA (6 mM final EDTA concentration). The stopped reactions were analyzed on a Caliper LabChip® EZ Reader 11. The conversion ratios were normalized to yield % activity, plotted against compound concentration, and fit to a four-parameter equation to determine the IC50 for each compound.

A further assay concerns Kuramochi cells RB-WT. Put plainly: IncuCyte Kuramochi cell proliferation assay, RB-WT. Format: cell-based. The conditions noted are these: 72 hours, cell count. An outline of the steps:
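mApple-H2B-labelled Kuramochi cells were treated with a 10-point, half-log series (top 20 µM) and imaged at 0 and 72 h. Fluorescent nuclei were counted, and the 0–72 h fold change was normalized to DMSO wells. GI50 came from dose-response fits.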

Consider `O=C(c1cncs1)N1C[C@@H](COCc2cccc(-c3ccc(C4(C(F)(F)F)CC4)cc3)n2)C2(CN(CC3CCCO3)C2)C1` (stereo partly drawn) [Compound I-7, ((8S)-2-((tetrahydrofuran-2-yl)methyl)-8-(((6-(4-(1-(trifluoromethyl)cyclopropyl)phenyl)pyridin-2-yl)methoxy)methyl)-2,6-diazaspiro[3.4]octan-6-yl)(thiazol-5-yl)methanone], for which the IC50 at CDK2/Cyclin E1 and in the assay on Kuramochi cells RB-WT was > 10 µM throughout.
As for `O=C(c1cncs1)N1C[C@@H](COCc2cccc(-c3ccc(C4CC4)cc3)n2)C2(CN(CC3CCCO3)C2)C1` (stereo partly drawn) [Compound I-8, ((8S)-8-(((6-(4-cyclopropylphenyl)pyridin-2-yl)methoxy)methyl)-2-((tetrahydrofuran-2-yl)methyl)-2,6-diazaspiro[3.4]octan-6-yl)(thiazol-5-yl)methanone], the IC50 at CDK2/Cyclin E1 and in the assay on Kuramochi cells RB-WT was > 10 µM in each case.
For the compound `CC1(C)C[C@@H]1C(=O)N1CC2(CN(CC3CCCO3)C[C@H]2CNC(=O)c2cccc(-c3ccc(C(F)(F)F)cc3)n2)C1` (stereo partly drawn) [Compound I-9, N-(((8R)-2-((S)-2,2-dimethylcyclopropane-1-carbonyl)-6-((tetrahydrofuran-2-yl)methyl)-2,6-diazaspiro[3.4]octan-8-yl)methyl)-6-(4-(trifluoromethyl)phenyl)picolinamide], the IC50 at CDK2/Cyclin E1 and with Kuramochi cells RB-WT was > 10 µM in each case.
Turning to `COc1ccccc1-c1cccc(C(=O)NC[C@@H]2CN(CC3CCCO3)CC23CN(C(=O)[C@H]2CC2(C)C)C3)n1` (stereo partly drawn) [Compound I-10, N-(((8R)-2-((S)-2,2-dimethylcyclopropane-1-carbonyl)-6-((tetrahydrofuran-2-yl)methyl)-2,6-diazaspiro[3.4]octan-8-yl)methyl)-6-(2-methoxyphenyl)picolinamide], the IC50 is 1 to 10 µM on CDK2/Cyclin E1 and > 10 µM in the assay on Kuramochi cells RB-WT.
In the case of `O=C(c1cncs1)N1C[C@@H](COCc2cccc(-c3ccc(C(F)(F)F)cc3)n2)C2(CN(CC3CCCO3)C2)C1` (stereo partly drawn) [Compound I-11, ((8S)-2-((Tetrahydrofuran-2-yl)methyl)-8-(((6-(4-(trifluoromethyl)phenyl)pyridin-2-yl)methoxy)methyl)-2,6-diazaspiro[3.4]octan-6-yl)(thiazol-5-yl)methanone], the IC50 on CDK2/Cyclin E1 and in the assay on Kuramochi cells RB-WT was > 10 µM throughout.
`O=C([C@H]1CC1(F)F)N1CC2(CN(Cc3cncs3)C[C@H]2COCc2cccc(-c3ccc(C(F)(F)F)cc3)n2)C1` [Compound I-12, ((R)-2,2-difluorocyclopropyl)((S)-6-(thiazol-5-ylmethyl)-8-(((6-(4-(trifluoromethyl)phenyl)pyridin-2-yl)methoxy)methyl)-2,6-diazaspiro[3.4]octan-2-yl)methanone]: the IC50 on CDK2/Cyclin E1 and in the assay with Kuramochi cells RB-WT was > 10 µM in each case.
In the case of `CC1(C)C[C@@H]1C(=O)N1CC2(CN(C(=O)c3cncs3)C[C@H]2COC(COC2CCC(F)(F)CC2)c2cccc(C3CCOCC3)n2)C1` (stereo partly drawn) [Compound I-13, ((8S)-8-((2-((4,4-difluorocyclohexyl)oxy)-1-(6-(tetrahydro-2H-pyran-4-yl)pyridin-2-yl)ethoxy)methyl)-2-((S)-2,2-dimethylcyclopropane-1-carbonyl)-2,6-diazaspiro[3.4]octan-6-yl)(thiazol-5-yl)methanone], the IC50 is 0.1 to 1 µM at CDK2/Cyclin E1 and > 10 µM in the assay with Kuramochi cells RB-WT.
`CC(OC[C@@H]1CN(C(=O)c2cncs2)CC12CN(C(=O)[C@H]1CC1(C)C)C2)c1cccc(C2CCOCC2)n1` (stereo partly drawn) [Compound I-14, ((S)-2-((S)-2,2-dimethylcyclopropane-1-carbonyl)-8-((1-(6-(tetrahydro-2H-pyran-4-yl)pyridin-2-yl)ethoxy)methyl)-2,6-diazaspiro[3.4]octan-6-yl)(thiazol-5-yl)methanone]: the IC50 on CDK2/Cyclin E1 was 1 to 10 µM; in the assay with Kuramochi cells RB-WT, > 10 µM.
